Usually Ki stands for the equilibrium dissociation constant of an inhibitor or competing ligand from its target. The EC50 is the midpoint of the concentration-response curve.

Here are results for 18 molecules from patent publication US10144715B2, “Piperazine derivatives as liver X receptor modulators” (priority 2014, dated 2018).

In one experiment the target is LXR α LBD protein (Homo sapiens (Human), UniProt Q13133). The experiment in a line: LXR α radioligand binding assay (SPA, competition with [3H]TO901317). As to conditions: read-out: LXRα Binding Ki.
LXR α LBD protein, sequence (Q13133 209-447): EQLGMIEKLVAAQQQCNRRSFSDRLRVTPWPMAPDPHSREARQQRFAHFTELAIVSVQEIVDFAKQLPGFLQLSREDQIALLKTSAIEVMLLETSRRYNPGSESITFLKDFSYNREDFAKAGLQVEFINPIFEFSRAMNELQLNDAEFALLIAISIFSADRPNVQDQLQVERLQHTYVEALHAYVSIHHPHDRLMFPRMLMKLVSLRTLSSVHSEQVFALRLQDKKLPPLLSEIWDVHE
The next experiment deals with LXR β LBD protein (Homo sapiens (Human), UniProt P55055). The experiment in a line: biochemical. It is filed as binding.
LXR β LBD protein, sequence (P55055 222-460 limits assumed): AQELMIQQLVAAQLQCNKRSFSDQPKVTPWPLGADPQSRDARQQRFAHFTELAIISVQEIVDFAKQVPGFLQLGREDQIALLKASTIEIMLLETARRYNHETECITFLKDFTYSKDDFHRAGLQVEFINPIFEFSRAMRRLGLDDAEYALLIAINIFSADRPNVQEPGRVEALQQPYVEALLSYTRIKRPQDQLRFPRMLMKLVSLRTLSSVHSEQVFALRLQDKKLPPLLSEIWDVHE
Experiment [1] concerns the target Gal4 DNA binding domain fused to the LBD of LXRα in HEK293 cells (Homo sapiens (Human), UniProt Q13133). Description: LXR luciferase transcriptional reporter gene assay, agonist mode, LXRα. As to conditions: for EC50: read-out: Cell LXRα EC50. It is filed as cell-based.
Experiment [2] has as its target Gal4 DNA binding domain fused to the LBD of LXRβ in HEK293 cells (Homo sapiens (Human), UniProt P55055). The experiment in a line: cell-based. As to conditions: for Cell LXRβ efficacy: agonist mode.

Molecules are shown by their SMILES. Where two headings read alike, the source gives them in different places.

Gal4 DNA binding domain fused to the LBD of LXRβ in HEK293 cells, sequence (P55055 222-460 limits assumed): as above
Gal4 DNA binding domain fused to the LBD of LXRα in HEK293 cells, sequence (Q13133 209-447): as the sequence (Q13133 209-447) above

Turning to `CC(C)(O)c1cnc(N2CCN(c3ccc(F)c(S(C)(=O)=O)c3)CC2C(C)(C)C)nc1C(F)(F)F` (stereo not shown) [10-4, 2-(2-(2-(tert-butyl)-4-(4-fluoro-3-(methylsulfonyl)phenyl)piperazin-1-yl)-4-(trifluoromethyl)pyrimidin-5-yl)propan-2-ol], the Ki at LXR α LBD protein was determined as 59 nM. Moreover, the Ki on LXR β LBD protein (read-out: LXRβ Binding Ki) came to 6 nM. Also, in experiment [1], the “Cell LXRα efficacy” value was 1034 (28) % and the EC50 is 1030 nM. Moreover, in experiment [2], the response was half-maximal at 128 nM (EC50) and the “Cell LXRβ efficacy” value was 128 (13) %.

On to `CC(C)[C@H]1CN(c2ccc(CO)c(S(C)(=O)=O)c2)CCN1c1ncc(C(C)(C)O)c(C(F)(F)F)n1` [10-5, (S)-2-(2-(4-(4-(hydroxymethyl)-3-(methylsulfonyl)phenyl)-2-isopropylpiperazin-1-yl)-4-(trifluoromethyl)pyrimidin-5-yl)propan-2-ol], for which the Ki came to 1280 nM at LXR α LBD protein and 230 nM at LXR β LBD protein (read-out: LXRβ Binding Ki). Moreover, in experiment [1], the “Cell LXRα efficacy” value is listed as 3627 (67) %. The EC50 came out at 3630 nM in experiment [1] (agonist mode) and 980 nM in experiment [2]. The “Cell LXRβ efficacy” value in experiment [2] is on record as 980 (58) %.

As for `CC(C)[C@@H]1CN(c2ccc(CO)c(S(C)(=O)=O)c2)CCN1c1ncc(C(C)(C)O)c(C(F)(F)F)n1` [10-7, (R)-2-(2-(4-(4-(hydroxymethyl)-3-(methylsulfonyl)phenyl)-2-isopropylpiperazin-1-yl)-4-(trifluoromethyl)pyrimidin-5-yl)propan-2-ol], the Ki at LXR α LBD protein turned out to be 261 nM; at LXR β LBD protein (read-out: LXRβ Binding Ki) it was 18 nM. Besides, the “Cell LXRα efficacy” value in experiment [1] is given as 1520 (51) %. In addition, the EC50 in experiment [1] (agonist mode) worked out at 1520 nM; in experiment [2], 235 nM. Moreover, the “Cell LXRβ efficacy” value in experiment [2] is recorded as 235 (40) %.

For `CC(C)[C@@H]1CN(c2ccc(F)c(S(C)(=O)=O)c2)CCN1c1nc(C(F)(F)F)c(C(C)(C)O)o1` [10-8, (R)-2-(2-(4-(4-fluoro-3-(methylsulfonyl)phenyl)-2-isopropylpiperazin-1-yl)-4-(trifluoromethyl)oxazol-5-yl)propan-2-ol], the Ki at LXR α LBD protein was 2190 nM; on LXR β LBD protein (read-out: LXRβ Binding Ki) it was 132 nM. For the same molecule, the “Cell LXRα efficacy” value in experiment [1] was 4655 (96) %. For the same molecule, the EC50 in experiment [1] stood at 4660 nM; in experiment [2], 901 nM. For the same molecule, in experiment [2], the “Cell LXRβ efficacy” value is 901 (76) %.

Consider `CC(C)(O)c1cc(CN2CCN(c3cccc(S(C)(=O)=O)c3)C[C@H]2c2ccccc2)ccc1C(F)(F)F` [10-14, (R)-2-(5-((4-(3-(methylsulfonyl)phenyl)-2-phenylpiperazin-1-yl)methyl)-2-(trifluoromethyl)phenyl)propan-2-ol], for which the figures for the Ki at LXR α LBD protein and at LXR β LBD protein (read-out: LXRβ Binding Ki) were 4560 nM and 1480 nM, respectively. Further, the EC50 in experiment [1] (agonist mode) and in experiment [2] was over 20000 nM throughout.

`CC(C)[C@@H]1CN(c2ccc(F)c(S(N)(=O)=O)c2)CCN1c1ncc(CO)c(C(F)(F)F)n1` [11-2, (R)-2-fluoro-5-(4-(5-(hydroxymethyl)-4-(trifluoromethyl)pyrimidin-2-yl)-3-isopropylpiperazin-1-yl)benzenesulfonamide]: the Ki at LXR α LBD protein is 357 nM. The Ki on LXR β LBD protein (read-out: LXRβ Binding Ki) turned out to be 35 nM. Besides, in experiment [1], the “Cell LXRα efficacy” value was 1336 (57) % and the EC50 is 1340 nM. Further, in experiment [2], a half-maximal effect (EC50) was put at 243 nM and the “Cell LXRβ efficacy” value is 243 (46) %.

For `CC(C)[C@@H]1CN(c2ccc(Cl)c(S(C)(=O)=O)c2)CCN1c1ncc(CO)c(C(F)(F)F)n1` [11-3, (R)-(2-(4-(4-chloro-3-(methylsulfonyl)phenyl)-2-isopropylpiperazin-1-yl)-4-(trifluoromethyl)pyrimidin-5-yl)methanol], the Ki on LXR α LBD protein stood at 146 nM. Also, the Ki on LXR β LBD protein (read-out: LXRβ Binding Ki) was found to be 6 nM. Besides, in experiment [1], the “Cell LXRα efficacy” value is on record as 1014 (62) % and the EC50 was 1010 nM. In experiment [2], it took 95 nM to reach a half-maximal effect (EC50) and the “Cell LXRβ efficacy” value is on record as 95 (44) %.

Turning to `CS(=O)(=O)c1cc(N2CCN(c3ncc(CO)c(C(F)(F)F)n3)[C@H](c3ccc(F)cc3)C2)ccc1F` [11-7, (R)-(2-(4-(4-fluoro-3-(methylsulfonyl)phenyl)-2-(4-fluorophenyl)piperazin-1-yl)-4-(trifluoromethyl)pyrimidin-5-yl)methanol], the Ki was 1160 nM on LXR α LBD protein and 85 nM on LXR β LBD protein (read-out: LXRβ Binding Ki). In experiment [1], the “Cell LXRα efficacy” value is 2240 (13) %. The figures for the EC50 in experiment [1] (agonist mode) and in experiment [2] were 2240 nM and 315 nM, respectively. Moreover, in experiment [2], the “Cell LXRβ efficacy” value is 315 (14) %.

Take `Cc1coc(-c2ccc(N3CCN(c4ncc(CO)c(C(F)(F)F)n4)[C@H](C(C)C)C3)cc2S(C)(=O)=O)n1` [11-8, (R)-(2-(2-isopropyl-4-(4-(4-methyloxazol-2-yl)-3-(methylsulfonyl)phenyl)piperazin-1-yl)-4-(trifluoromethyl)pyrimidin-5-yl)methanol]: the Ki came out at 1160 nM at LXR α LBD protein and 133 nM at LXR β LBD protein (read-out: LXRβ Binding Ki). Moreover, the “Cell LXRα efficacy” value in experiment [1] is 2934 (53) %. Also, the figures for the EC50 in experiment [1] (agonist mode) and in experiment [2] were 2930 nM and 405 nM, respectively. Moreover, the “Cell LXRβ efficacy” value in experiment [2] was 405 (53) %.

Turning to `Cc1nnc(-c2ccc(N3CCN(c4ncc(CO)c(C(F)(F)F)n4)[C@H](C(C)C)C3)cc2S(C)(=O)=O)o1` [11-9, (R)-(2-(2-isopropyl-4-(4-(5-methyl-1,3,4-oxadiazol-2-yl)-3-(methylsulfonyl)phenyl)piperazin-1-yl)-4-(trifluoromethyl)pyrimidin-5-yl)methanol], the inhibition constant Ki on LXR α LBD protein was found to be 1970 nM. On LXR β LBD protein (read-out: LXRβ Binding Ki), the Ki came out at 247 nM. In addition, in experiment [1], the “Cell LXRα efficacy” value is listed as 3283 (31) % and the EC50 turned out to be 3280 nM. Further, in experiment [2], it took 603 nM to reach a half-maximal effect (EC50) and the “Cell LXRβ efficacy” value is recorded as 603 (39) %.

Turning to `Cc1noc(-c2ccc(N3CCN(c4ncc(CO)c(C(F)(F)F)n4)[C@H](C(C)C)C3)cc2S(C)(=O)=O)n1` [11-10, (R)-(2-(2-isopropyl-4-(4-(3-methyl-1,2,4-oxadiazol-5-yl)-3-(methylsulfonyl)phenyl)piperazin-1-yl)-4-(trifluoromethyl)pyrimidin-5-yl)methanol], the figures for the Ki on LXR α LBD protein and at LXR β LBD protein (read-out: LXRβ Binding Ki) were over 3330 nM and 773 nM, respectively. Further, the “Cell LXRα efficacy” value in experiment [1] is on record as 6291 (28) %. Besides, the EC50 in experiment [1] (agonist mode) came to 6290 nM; in experiment [2], 2250 nM. The “Cell LXRβ efficacy” value in experiment [2] is recorded as 2253 (36) %.

On to `Cc1nc(N2CCN(c3ccc(F)c(S(C)(=O)=O)c3)C[C@H]2C(C)C)ncc1CO` [11-14, (R)-(2-(4-(4-fluoro-3-(methylsulfonyl)phenyl)-2-isopropylpiperazin-1-yl)-4-methylpyrimidin-5-yl)methanol], for which the Ki on LXR α LBD protein is over 3330 nM; at LXR β LBD protein, 515 nM. Moreover, the EC50 in experiment [1] and in experiment [2] was over 20000 nM in each case.

For the molecule `CNS(=O)(=O)c1cc(N2CCN(c3ncc(C(C)O)c(C(F)(F)F)n3)[C@H](C(C)C)C2)ccc1F` (stereo partly drawn) [12-8, 2-fluoro-5-((3R)-4-(5-(1-hydroxyethyl)-4-(trifluoromethyl)pyrimidin-2-yl)-3-isopropylpiperazin-1-yl)-N-methylbenzenesulfonamide], the Ki on LXR α LBD protein worked out at 126 nM; at LXR β LBD protein (read-out: LXRβ Binding Ki), 4 nM. For the same molecule, the “Cell LXRα efficacy” value in experiment [1] is recorded as 503 (56) %. Besides, the EC50 in experiment [1] (agonist mode) is 503 nM; in experiment [2], 59 nM. The “Cell LXRβ efficacy” value in experiment [2] is listed as 59 (46) %.

In the case of `CC(C)[C@@H]1CN(c2ccc(F)c(S(C)(=O)=O)c2)CCN1c1ncc(CN(C)CCCO)c(C(F)(F)F)n1` [15-9, (R)-3-(((2-(4-(4-fluoro-3-(methylsulfonyl)phenyl)-2-isopropylpiperazin-1-yl)-4-(trifluoromethyl)pyrimidin-5-yl)methyl)(methyl)amino)propan-1-ol], the Ki worked out at 2060 nM on LXR α LBD protein and 146 nM at LXR β LBD protein. For the same molecule, the “Cell LXRα efficacy” value in experiment [1] is 4170 (10) %. For the same molecule, the results for the EC50 in experiment [1] (agonist mode) and in experiment [2] were 4170 nM and over 20000 nM, respectively.

On to `CNC(=O)c1cnc(N2CCN(c3ccc(F)c(S(C)(=O)=O)c3)C[C@H]2C(C)C)nc1C(F)(F)F` [17-3, (R)-2-(4-(4-fluoro-3-(methylsulfonyl)phenyl)-2-isopropylpiperazin-1-yl)-N-methyl-4-(trifluoromethyl)pyrimidine-5-carboxamide], for which the figures for the Ki at LXR α LBD protein and on LXR β LBD protein (read-out: LXRβ Binding Ki) were 2690 nM and 188 nM, respectively. For the same molecule, the “Cell LXRα efficacy” value in experiment [1] is given as 5514 (29) %. In addition, the EC50 was 5510 nM in experiment [1] (agonist mode) and 448 nM in experiment [2]. Also, the “Cell LXRβ efficacy” value in experiment [2] is listed as 448 (18) %.

Regarding `COCCNC(=O)c1cnc(N2CCN(c3ccc(F)c(S(C)(=O)=O)c3)C[C@H]2C(C)C)nc1C(F)(F)F` [17-6, (R)-2-(4-(4-fluoro-3-(methylsulfonyl)phenyl)-2-isopropylpiperazin-1-yl)-N-(2-methoxyethyl)-4-(trifluoromethyl)pyrimidine-5-carboxamide], the Ki was over 3330 nM on LXR α LBD protein and 532 nM on LXR β LBD protein (read-out: LXRβ Binding Ki). Moreover, the EC50 in experiment [1] (agonist mode) and in experiment [2] was over 20000 nM throughout.

As to `CC(C)[C@@H]1CN(c2ccc(F)c(S(C)(=O)=O)c2)CCN1c1ncc(C(=O)N(C)CCO)c(C(F)(F)F)n1` [17-7, (R)-2-(4-(4-fluoro-3-(methylsulfonyl)phenyl)-2-isopropylpiperazin-1-yl)-N-(2-hydroxyethyl)-N-methyl-4-(trifluoromethyl)pyrimidine-5-carboxamide], the Ki on LXR α LBD protein was over 3330 nM; at LXR β LBD protein, 507 nM. Further, the EC50 in experiment [1] and in experiment [2] was over 20000 nM each time.

In the case of `COC1CN(C(=O)c2cnc(N3CCN(c4ccc(F)c(S(C)(=O)=O)c4)C[C@H]3C(C)C)nc2C(F)(F)F)C1` [17-9, (R)-(2-(4-(4-fluoro-3-(methylsulfonyl)phenyl)-2-isopropylpiperazin-1-yl)-4-(trifluoromethyl)pyrimidin-5-yl)(3-methoxyazetidin-1-yl)methanone], the values for the Ki at LXR α LBD protein and at LXR β LBD protein (read-out: LXRβ Binding Ki) were over 3330 nM and 410 nM, respectively. The EC50 in experiment [1] and in experiment [2] was over 20000 nM throughout.
